Test results published in patent US4329453A, “Cephalosporin antibiotic” (Glaxo Group Limited, priority 1979, dated 1982).
Where a name gives a salt, the structure may show the parent alone.

How the values were obtained:
stability = type: physicochemical
Text: These properties render the hydrate of value in pharmaceutical use.
The salts for use in the preparation of the new pentahydrate according to the invention may be prepared by a process disclosed in the above-mentioned U.K. Patent Specification No. 2025398, i.e. by a process corresponding to the method above mentioned.

gram-negative bacteria = test: experimental infections in mice with gram-negative bacteria; type: in vivo
bacteria [1] = test: antibiotic activity in vitro (broad spectrum); type: cell-based
Pseudomonas organisms = test: activity against Pseudomonas organisms; type: cell-based
Pseudomonas aeruginosa = test: experimental infections in mice with Pseudomonas aeruginosa; type: in vivo
[2] = system: β-lactamase-producing gram-negative strains; conditions: as described in U.K. Patent Specification No. 2025398; cited from earlier work
[3] = distribution and levels in small rodents after subcutaneous injection; type: in vivo
gram-negative organisms = conditions: as described in U.K. Patent Specification No. 2025398; cited from earlier work
[4] = pharmacokinetic studies in human volunteers
early clinical results = type: in vivo, human
Serratia = test: activity against Serratia; type: cell-based
[5] = acute toxicity tests in mice; conditions: mouse, in vivo
indole-positive Proteus = test: activity against indole-positive Proteus; type: cell-based
[6] = especially at elevated temperatures, U.K. Patent Specification No. 2025398; cited from earlier work
nephrotoxicity in rats = type: in vivo; conditions: dosages of 2.0 g/kg
bacteria [7] = conditions: as described in U.K. Patent Specification No. 2025398; cited from earlier work
Providence = test: activity against Providence; type: cell-based
pathogenic bacteria = test: antibiotic properties of the crystalline pentahydrate; type: cell-based; conditions: compared with compound (I)

## CC(C)(O/N=C(\C(=O)N[C@@H]1C(=O)N2C(C(=O)[O-])=C(C[n+]3ccccc3)CS[C@H]12)c1csc(N)n1)C(=O)O [bishydrochloride, (6R,7R)-7-[(Z)-2-(2-Aminothizol-4-yl)-2-(2-carboxyprop-2-oxyimino)acetamidol]-3-(1-pyridiniummethyl)ceph-3-em-4-carboxylate bishydrochloride]
stability; crystallised from acetone and formic acid
  stability of crystalline bishydrochloride: highly stable

## CC(C)(O/N=C(\C(=O)N[C@@H]1C(=O)N2C(C(=O)[O-])=C(C[n+]3ccccc3)CS[C@H]12)c1csc(N)n1)C(=O)O [ceftazidime, (6R,7R)-7-[(Z)-2-(2-aminothiazol-4-yl)-2-(2-carboxyprop-2-oxyimino)acetamido]-3-(1-pyridiniummethyl)ceph-3-em-4-carboxylate]
gram-negative bacteria
  treatment of experimental infections with gram-negative bacteria: successfully treated
Bacteria [1]; at concentrations close to the minimum inhibitory concentration
  bactericidal action: rapidly bactericidal
Bacteria [1]; human serum
  effect of human serum on antibacterial properties: not impaired by human serum
Bacteria [1]; increased inocula
  effect of increased inocula: low
Pseudomonas organisms
  activity against Pseudomonas organisms: excellent activity
Pseudomonas aeruginosa
  protection against strains of Pseudomonas aeruginosa: excellent protection
Pseudomonas aeruginosa; versus amikacin
  protection compared with treatment with an aminoglycoside such as amikacin: comparable
[2]
  activity against β-lactamase-producing gram-negative strains: unusually high activity
[3]
  distribution in the bodies of small rodents: well distributed
[3]; subcutaneous injection
  levels after subcutaneous injection: useful therapeutic levels
gram-negative organisms
  activity against gram-negative organisms: unusually high activity
[4]
  pharmacokinetic properties: good pharmacokinetic properties
  serum half-life: long
[4]; injection
  serum levels after injection: high and long lasting serum levels
Early clinical results
  antibiotic properties in the clinic: reproduces in the clinic the excellent antibiotic properties
Serratia
  activity against Serratia: excellent activity
[5]
  LD50: > 6000 mg/kg
indole-positive Proteus
  activity against indole-positive Proteus: excellent activity
[6]
  stability of amorphous solid: not particularly satisfactory
Nephrotoxicity in rats
  nephrotoxicity: No nephrotoxicity has been observed
Bacteria [7]
  broad spectrum antibiotic activity: broad spectrum antibiotic activity
Providence
  activity against Providence: excellent activity

## CC(C)(O/N=C(\C(=O)N[C@@H]1C(=O)N2C(C(=O)[O-])=C(C[n+]3ccccc3)CS[C@H]12)c1csc(N)n1)C(=O)O [crystalline pentahydrate, (6R, 7R)-7-[(Z)-2-(2-aminothiazol-4-yl)-2-(2-carboxyprop-2-oxyimino)acetamido]-3-(1-pyridiniummethyl)ceph-3-em-4-carboxylate pentahydrate]
stability; new hydrate
  crystallinity and stability (quality): superior quality
stability; stored at 50° C. for an extended period
  stability on storage: remarkably stable
Pathogenic bacteria
  antibiotic properties: exhibits the antibiotic properties of the above-mentioned compound (I)
